“Also recorded” adds a separate entry of the source.
Columns and labels:
[1] = Calcemic activity: plasma calcium levels in vitamin D-deficient rats; type: in vivo, rat; conditions: for increase in plasma calcium over vehicle-treated control group: 0.042 μg/kg per day; for increase in plasma calcium level compared with vehicle-treated rats: higher concentration, 0.25 μg/kg per day; for Plasma calcium: vitamin D-deficient rats, means +/− standard deviation
Experimental: Three-week-old Sprangue-Dawley male rats were obtained from the Holtzman Laboratory, Madison, Wis. Up to three rats were housed together in a polycarbonate cage. The animal cages were kept under yellow light. The rats (eight to 10 per group per concentration of both vitamin D analogues used) were fed a vitamin D-free diet containing 0.47 g/100 g calcium and 0.3 g/100 g phosphorus. After the rats had consumed this diet for 3 weeks, their plasma calcium levels were measured. […] Such rats were administered appropriate vitamin D analogues intragastrically for 14 days. At the end of this period, the plasma calcium levels were again measured. • 3. Induction Of Preneoplastic Lesions In Mammary Glands And Their Prevention By Vitamin D3 and D5 Analogues

[2] = system: 7,12-dimethylbenz[a]anthracene-induced lesions in BALB/c mouse mammary glands; test: DMBA-induced mammary lesions in mouse mammary gland organ culture; type: cell-based; conditions: for number of glands exhibiting lesions / lesion formation, dependence on concentration: 0.01 μM to 10.0 μM; for No. of glands with lesions/total No. of glands treated: 10 days in culture; for % incidence of lesions: control 60.0
Experimental: Young, virgin BALB/c female mice, 3-4 weeks of age, were obtained from Charles River Laboratories, Wilmington, Mass. The mice were pretreated for 9 days with 17β-estradiol (1 μg in 0.1 mL saline per animal) and progesterone (1 mg in 0.1 mL saline per animal). They were then killed by cervical dislocation, and the thoracic pair of mammary glands was dissected out on silk rafts and incubated for 10 days in Waymouth MB752 medium (Life Technologies, Inc. [GIBCO BRL], Gauthersburg, Md.) containing the following growth-promoting hormones: insulin (5 μg/mL), prolactin (5 μg/mL), aldosterone (1 μg/mL), and hydrocortisone (1 μg/mL).
The carcinogen 7,12-dimethylbenz [a] anthracene (DMBA) at a dose of 2 μg/mL was added to the medium on day 3 for 24 hours to induce mammary lesions. The DMBA-containing medium was then removed, and the mammary glands were incubated for an additional 14 days with medium containing only insulin. […] These structures were termed “mammary lesions.”
The vitamin D analogues (ranging in concentration from 0.01 μM to 10.0 μM) were included in the medium during the first 10 days of the in vitro culture to determine if they lowered the incidence of mammary lesion formation. Throughout the culture period, the glands were maintained at 37° C. in an environment of 95% air and 5% CO2. At the end of the culture period, the glands were fixed in formalin, stained in alum-carmine solution, and evaluated for the presence or absence of mammary lesions. All hormones and chemicals were purchased from the Sigma Chemical Co., St. Louis, Mo. • 4. Immunohistochemistry Of VDRs And TGF-β1
To evaluate the efficacy of the newly synthesized vitamin D5 analogue in preventing mammary lesion formation, we incubated 15 mammary glands per group (135 glands in total) from BALB/c mice with appropriate hormones and exposed the glands to DMBA on day 3 for 24 hours (see “Experimental Equipment and Methods” section). The mammary glands were incubated for 10 days with the vitamin D analogues in concentrations ranging from 0.01 μM to 10.0 μM. The incidence of mammary lesions was calculated for each group and was reported as the ratio of the number of mammary glands showing lesions to the total number of mammary glands at risk.

mammary glands = test: Toxic effects and structural differentiation of mammary glands in organ culture; type: cell-based, mouse; conditions: for toxicity to the glands, overall: 0.1 μM or 1.0 μM tested; for toxicity to mammary glands, gland structure: 3 days
Experimental: (§1) Normal mouse mammary glands were dissected and incubated with growth-promoting hormones either alone or in the presence of vitamin D analogues for only 3 days. In this experiment, the glands were not exposed to DMBA (see protocol described in the previous section). Instead, the glands were fixed in buffered formalin, and 5-μm-thick sections were prepared for histopathologic evaluations. The sections were mounted on adhesive-coated slides (Superfast: Fisher Scientific Co., Itasca, Ill.), dried at 60° C. for 1 hour, deparaffinized in xylene, […] in a series of alcohol, and finally washed with phosphate-buffered saline (PBS).
To determine the effects of vitamin D analogues on the structural differentiation as well as their toxic effects on mammary glands, we incubated mammary glands with growth-promoting hormones for 3 days either alone or in the presence of 0.1 μM or 1.0 μM vitamin D analogues. The control mammary gland structure was represented by normal alveolar and ductal structures.

VDR = test: Immunohistochemistry of VDRs in normal mouse mammary glands; type: cell-based; conditions: 3 days
Experimental: as §1
(§2) To block the nonspecific antibody reactions, we treated the tissue sections with 5% dried skim milk for 10 minutes and then incubated them with primary mouse antibody (either against VDR or against TGF-β1, both obtained from BioGenex Laboratories, San Ramon, Calif.) overnight at 0-4° C. […]
(§3) The tissues were counterstained with hematoxylin-eosin, dehydrated through graded series of alcohol and xylene, and finally mounted in Permount (Fisher Scientific Co.). Slides were evaluated for the presence or absence of the VDR or TGF-β1 and for the intensity of staining in the positively strained samples. • 5. […]

ZR 75 = test: Growth of human breast cancer cell line; type: cell-based
T47D = test: Growth of human breast cancer cell line; type: cell-based
MCF1Oneo = test: Growth of human breast cancer cell line; type: cell-based
MCF-7 = test: Growth of human breast cancer cell line; type: cell-based
BCA-4 = test: Growth of human breast cancer cell line; type: cell-based
breast cancer cells [3] = test: Growth of analogue-differentiated breast cancer cells transplanted in athymic mice; type: in vivo, mouse; conditions: cells differentiated with the analogue before transplantation
breast cancer cells [4] = test: Growth of breast cancer cells in athymic mice injected with the analogue; type: in vivo, mouse; conditions: injection of 8 mg, 3 × week/2 months, athymic mice bearing breast cancer cells
[5] = Stability studies on storage; type: physicochemical; conditions: 20° C.
TGF-β1 = test: Immunohistochemistry of TGF-β1 in normal mouse mammary glands; type: cell-based; conditions: 1.0 μM, 3 days
Experimental: as §1, §2, §3

[6] = system: HL-60 human leukemia cells; conditions: cited from earlier work
[7] = 0.042 μg/kg/day intragastrically for 14 days
[8] = 0.25 μg/kg/day intragastrically for 14 days

For `C=C1/C(=C\C=C2/CCC[C@]3(C)[C@@H]([C@H](C)CC[C@@H](CC)C(C)C)CC[C@@H]23)C[C@@H](O)C[C@@H]1O` [1α(OH)D5, 1α-Hydroxyvitamin D5], the “increase in plasma calcium over vehicle-treated control group” value [1] was 11%, the “increase in plasma calcium level compared with vehicle-treated rats” value [1] was 50% and the “calcemic effects compared with 1α,25(OH)2D3” value ([1]; overall, both doses) was “overall lower calcemic effects; also recorded: much less calcemic”. The Plasma calcium [1, 7] was 6.0 ± 0.63 mg/dL, the Plasma calcium [1, 8] was 7.9 ± 1.5 mg/dL and the “number of glands exhibiting lesions / lesion formation, dependence on concentration” value [2] was “dose-related decrease”. The “number of glands exhibiting lesions / lesion formation, dependence on concentration” value ([2]; listed as vitamin D5 analogue) was “inhibited the lesion formation in a dose-dependent manner”, the “No. of glands with lesions/total No. of glands treated” value ([2]; 0.01 μM) was 6/16 and the “% incidence of lesions” value ([2]; 0.01 μM) was 37.5%. The “No. of glands with lesions/total No. of glands treated” value ([2]; 0.1 μM) was 4/16, the “% incidence of lesions” value ([2]; 0.1 μM) was 25.0% and the “No. of glands with lesions/total No. of glands treated” value ([2]; 1.0 μM) was 2/14. The “% incidence of lesions” value ([2]; 1.0 μM) was 14.3%, the “percent inhibition of formation of lesions” value ([2]; 10.0 μM) was 100% and the “No. of glands with lesions/total No. of glands treated” value ([2]; 10.0 μM) was 0/15. For the same compound, the “% incidence of lesions” value ([2]; 10.0 μM) was 0.0%, the “toxicity to the glands, overall” value (mammary glands) was “did not result in any toxicity” and the “toxicity to the glands, overall” value (mammary glands; listed as vitamin D5 analogue) was “considerably less toxic than the vitamin D3 analogue”. The “toxicity to mammary glands, gland structure” value (“toxicity to mammary glands” below) (mammary glands; 1.0 μM) was “retained the healthy structural characteristics”, the “expression of VDRs (staining) in mammary epithelial cells” value (VDR; 0.1 μM (lower concentration)) was “much less” and the “expression of VDRs (staining) in mammary epithelial cells” value (VDR; 1.0 μM) was “induced expression of VDRs”. For the same compound, the “growth of cell line” value (ZR 75) was “inhibited growth”, the “growth of cell line” value (T47D) was “inhibited growth” and the “growth of cell line” value (MCF1Oneo) was “inhibited growth”. The “growth of cell line” value (MCF-7) was “inhibited growth”, the “growth of cell line” value (BCA-4) was “inhibited growth” and the “growth of differentiated cells when transplanted in athymic mice” value (breast cancer cells [3]) was “did not grow”. For the same compound, the “growth of cancer cells in the animals” value (breast cancer cells [4]) was “inhibited growth”, the stability in solution [5] was “one month” and the “storage stability in powder form” value [5] was “a year”.

For `C=C1/C(=C\C=C2/CCC[C@]3(C)[C@@H]([C@H](C)CCCC(C)(C)O)CC[C@@H]23)C[C@@H](O)C[C@@H]1O` [1α,25(OH)2D3, 1α,25-dihydroxyvitamin D3, reference compound], the “increase in plasma calcium over vehicle-treated control group” value [1] was 50%, the “increase in plasma calcium level compared with vehicle-treated rats” value [1] was 87% and the Plasma calcium [1, 7] was 8.1 ± 1.2 mg/dL. The Plasma calcium ([1]; 0.042 μg/kg/day intragastrically for 14 days, listed as 1α, 25(OH)2D3) was 8.1 ± 1.2 mg/dL, the Plasma calcium [1, 8] was 10.1 ± 1.8 mg/dL and the Plasma calcium ([1]; 0.25 μg/kg/day intragastrically for 14 days, listed as 1α, 25 (OH)2D3) was 10.1 ± 1.8 mg/dL. For the same compound, the “No. of glands with lesions/total No. of glands treated” value ([2]; 0.01 μM) was “two of 14”, the “No. of glands with lesions/total No. of glands treated” value ([2]; 0.01 μM, listed as 1,25α-dihydroxyvitamin D3) was 2/14 and the “% incidence of lesions” value ([2]; 0.01 μM) was 14.3%. For the same compound, the “No. of glands with lesions/total No. of glands treated” value ([2]; 0.1 μM) was 0/15, the “% incidence of lesions” value ([2]; 0.1 μM) was 0.0% and the “No. of glands with lesions/total No. of glands treated” value ([2]; 1.0 μM) was 0/15. The “% incidence of lesions” value ([2]; 1.0 μM) was 0.0%, the “No. of glands with lesions/total No. of glands treated” value ([2]; 10.0 μM) was 0/15 and the “% incidence of lesions” value ([2]; 10.0 μM) was 0.0%. For the same compound, the mammary lesions ([2]; concentrations higher than 0.01 μM) was “no mammary lesions were observed”, the “toxicity to mammary glands” value (mammary glands; 0.1 μM) was “did not show toxicity” and the “toxicity to mammary glands” value (mammary glands; 1.0 μM) was “disintegration of ducts and structural toxicity to the glands”. The “concentrations toxic to the glands” value (mammary glands; 3 days in organ culture) was ≥ 1000 nM, the “induction of TGF-β1 in mammary epithelial cells” value (TGF-β1) was “much reduced” and the stability in solution [5] was “one month”. The “storage stability in powder form” value [5] was “a year”.

For `C=C1/C(=C/C=C2\CCC[C@]3(C)C([C@H](C)CC#CC(O)(C(F)(F)F)C(F)(F)F)=CC[C@@H]23)C[C@@H](O)C[C@@H]1O` [Ro24-5531, 1α, 25-dihydroxy-16-ene-23-yne-26,27-hexafluorocholecalciferol], the “expression of TGF-β1 and its type 2 receptors” value [6] is given as “induced expression”.
